Laboratory results as given in patent US11014929B2, “Pyrazolopyrimidine compounds and uses thereof” (Incyte Corporation, priority 2016, dated 2021).
pKi: −log10 of the molar value.

The compounds below were run against HPK1 (Homo sapiens (Human), UniProt Q92918) (assay: HPK1 Kinase Binding Assay). Conditions: LanthaScreen tracer 222 binding, active HPK1, one hour incubation at 25° C.
Protocol: A stock solution of 1 mM test compound was prepared in DMSO. The compound plate was prepared by 3-fold and 11-point serial dilutions. 0.1 μL of the compound in DMSO was transferred from the compound plate to the white 384 well polystyrene plates. The assay buffer contained 50 mM HEPES, pH 7.5, 0.01% Tween-20, 5 mM MgCl2, 0.01% BSA, and 5 mM DTT. 5 μl of 4 nM active HPK1 (SignalChem M23-11G) prepared in the buffer was added to the plate. The enzyme concentration given was based on the given stock concentration reported by the vender. 5 μl of 18 nM tracer 222 (ThermoFisher PV6121) and 4 nM LanthaScreen Eu-Anti GST antibody (ThermoFisher PV5595) were added. After one hour incubation at 25° C., the plates were read on a PHERAstar FS plate reader (BMG Labtech). Ki values were determined.

Chain of HPK1 (Q92918 1-346): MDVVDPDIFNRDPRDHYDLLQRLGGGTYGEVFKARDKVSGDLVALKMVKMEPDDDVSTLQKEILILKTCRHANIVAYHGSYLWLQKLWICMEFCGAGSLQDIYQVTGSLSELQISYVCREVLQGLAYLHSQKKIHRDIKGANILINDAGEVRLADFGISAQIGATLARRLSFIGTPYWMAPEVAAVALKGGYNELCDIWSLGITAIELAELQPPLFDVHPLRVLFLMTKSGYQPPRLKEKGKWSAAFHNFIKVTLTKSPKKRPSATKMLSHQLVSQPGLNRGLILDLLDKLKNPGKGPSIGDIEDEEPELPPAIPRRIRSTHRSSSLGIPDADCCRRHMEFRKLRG

| pKi | SMILES |
| --- | --- |
| 6.30 to 7.00 | COc1cccc(F)c1-c1ncc2[nH]nc(-c3ccc(C(F)(F)F)cc3)c2n1 [Example 18, 5-(2-Fluoro-6-methoxyphenyl)-3-(4-(trifluoromethyl)phenyl)-1H-pyrazolo[4,3-d]pyrimidine] |
| ≥ 7.00 | COc1cccc(F)c1-c1ncc2[nH]nc(-c3ccc(CN4CCN(C)CC4)cc3)c2n1 [Example 23, 5-(2-Fluoro-6-methoxyphenyl)-3-(4-((4-methylpiperazin-1-yl)methyl)phenyl)-1H-pyrazolo[4,3-d]pyrimidine] |
| ≥ 7.00 | COc1cccc(F)c1-c1ncc2[nH]nc(-c3cccc(CN4CCN(C)CC4)c3)c2n1 [Example 25, 5-(2-Fluoro-6-methoxyphenyl)-3-(3-((4-methylpiperazin-1-yl)methyl)phenyl)-1H-pyrazolo[4,3-d]pyrimidine] |
| 6.30 to 7.00 | COc1cccc(F)c1-c1ncc2[nH]nc(-c3cccc(N4CCCC4)c3)c2n1 [Example 28, 5-(2-fluoro-6-methoxyphenyl)-3-(3-(pyrrolidin-1-yl)phenyl)-1H-pyrazolo[4,3-d]pyrimidine] |
| ≥ 7.00 | CNC(=O)c1ccc(-c2n[nH]c3cnc(-c4c(F)cccc4OC)nc23)cc1 [Example 38, 4-(5-(2-Fluoro-6-methoxyphenyl)-1H-pyrazolo[4,3-d]pyrimidin-3-yl)-N-methylbenzamide] |
| ≥ 7.00 | COc1cccc(F)c1-c1ncc2[nH]nc(-c3ccc(C4CC4)cc3)c2n1 [Example 39, 3-(4-Cyclopropylphenyl)-5-(2-fluoro-6-methoxyphenyl)-1H-pyrazolo[4,3-d]pyrimidine] |
| ≥ 7.00 | COc1cccc(F)c1-c1ncc2[nH]nc(-c3ccc(CN)cc3)c2n1 [Example 41, (4-(5-(2-Fluoro-6-methoxyphenyl)-1H-pyrazolo[4,3-d]pyrimidin-3-yl)phenyl)methanamine] |
| ≥ 7.00 | COc1cccc(F)c1-c1ncc2[nH]nc(-c3ccc(C(C)(C)C#N)cc3)c2n1 [Example 42, 2-(4-(5-(2-Fluoro-6-methoxyphenyl)-1H-pyrazolo[4,3-d]pyrimidin-3-yl)phenyl)-2-methylpropanenitrile] |
| ≥ 7.00 | COc1cccc(F)c1-c1ncc2[nH]nc(-c3ccc(C4CCOCC4)cc3)c2n1 [Example 43, 5-(2-Fluoro-6-methoxyphenyl)-3-(4-(tetrahydro-2H-pyran-4-yl)phenyl)-1H-pyrazolo[4,3-d]pyrimidine] |
| ≥ 7.00 | CN1CCN(c2ccc(-c3n[nH]c4cnc(-c5cccc(C(N)=O)c5F)nc34)cc2)CC1 [Example 46, 2-Fluoro-3-(3-(4-(4-methylpiperazin-1-yl)phenyl)-1H-pyrazolo[4,3-d]pyrimidin-5-yl)benzamide] |
| ≥ 7.00 | COc1cccc(F)c1-c1ncc2[nH]nc(-c3ccnc(N4CCNCC4)c3)c2n1 [Example 50, 5-(2-Fluoro-6-methoxyphenyl)-3-(2-(piperazin-1-yl)pyridin-4-yl)-1H-pyrazolo[4,3-d]pyrimidine] |
| ≥ 7.00 | COc1cccc(F)c1-c1ncc2[nH]nc(-c3ccnc(N4CCN(C)CC4)c3)c2n1 [Example 51, 5-(2-Fluoro-6-methoxyphenyl)-3-(2-(4-methylpiperazin-1-yl)pyridin-4-yl)-1H-pyrazolo[4,3-d]pyrimidine] |

Further lines, the compound ahead of its results:

| SMILES | pKi |
| --- | --- |
| COc1cccc(F)c1-c1ncc2[nH]nc(-c3ccc(C#N)cc3)c2n1 [Example 17, 4-(5-(2-Fluoro-6-methoxyphenyl)-1H-pyrazolo[4,3-d]pyrimidin-3-yl)benzonitrile] | ≥ 7.00 |
| COc1cccc(-c2n[nH]c3cnc(-c4c(F)cccc4OC)nc23)c1 [Example 19, 5-(2-Fluoro-6-methoxyphenyl)-3-(3-methoxyphenyl)-1H-pyrazolo[4,3-d]pyrimidine] | ≥ 7.00 |
| COc1cccc(F)c1-c1ncc2[nH]nc(-c3ccccc3C)c2n1 [Example 20, 5-(2-Fluoro-6-methoxyphenyl)-3-o-tolyl-1H-pyrazolo[4,3-d]pyrimidine] | 5.30 to 6.30 |
| COc1cccc(F)c1-c1ncc2[nH]nc(-c3ccsc3)c2n1 [Example 21, 5-(2-Fluoro-6-methoxyphenyl)-3-(thiophen-3-yl)-1H-pyrazolo[4,3-d]pyrimidine] | ≥ 7.00 |
| COc1cccc(F)c1-c1ncc2[nH]nc(-c3ccc(C(=O)N(C)C)cc3)c2n1 [Example 22, 4-(5-(2-Fluoro-6-methoxyphenyl)-1H-pyrazolo[4,3-d]pyrimidin-3-yl)-N,N-dimethylbenzamide] | 6.30 to 7.00 |
| COc1cccc(F)c1-c1ncc2[nH]nc(-c3ccc(CN4CCOCC4)cc3)c2n1 [Example 24, 4-(4-(5-(2-Fluoro-6-methoxyphenyl)-1H-pyrazolo[4,3-d]pyrimidin-3-yl)benzyl)morpholine] | ≥ 7.00 |
| COc1cccc(F)c1-c1ncc2[nH]nc(-c3ccc(N4CCOCC4)cc3)c2n1 [Example 26, 4-(4-(5-(2-Fluoro-6-methoxyphenyl)-1H-pyrazolo[4,3-d]pyrimidin-3-yl)phenyl)morpholine] | ≥ 7.00 |
| COc1cccc(F)c1-c1ncc2[nH]nc(-c3cccc(N4CCNCC4)c3)c2n1 [Example 27, 5-(2-Fluoro-6-methoxyphenyl)-3-(3-(piperazin-1-yl)phenyl)-1H-pyrazolo[4,3-d]pyrimidine] | ≥ 7.00 |
| COc1cccc(F)c1-c1ncc2[nH]nc(-c3cccc(N4CCOCC4)c3)c2n1 [Example 29, 4-(3-(5-(2-Fluoro-6-methoxyphenyl)-1H-pyrazolo[4,3-d]pyrimidin-3-yl)phenyl)morpholine] | ≥ 7.00 |
| COc1cccc(F)c1-c1ncc2[nH]nc(-c3cccc(N(C)C)c3)c2n1 [Example 30, 3-(5-(2-Fluoro-6-methoxyphenyl)-1H-pyrazolo[4,3-d]pyrimidin-3-yl)-N,N-dimethylaniline] | ≥ 7.00 |
| COc1cccc(F)c1-c1ncc2[nH]nc(-c3ccc(C(=O)N4CCOCC4)cc3)c2n1 [Example 31, (4-(5-(2-Fluoro-6-methoxyphenyl)-1H-pyrazolo[4,3-d]pyrimidin-3-yl)phenyl)(morpholino)methanone] | ≥ 7.00 |
| COc1cccc(F)c1-c1ncc2[nH]nc(-c3ccc(C(=O)NC4CCCC4)cc3)c2n1 [Example 32, N-Cyclopentyl-4-(5-(2-fluoro-6-methoxyphenyl)-1H-pyrazolo[4,3-d]pyrimidin-3-yl)benzamide] | ≥ 7.00 |
| COc1cccc(F)c1-c1ncc2[nH]nc(-c3ccc(C4(N5CCOCC5)CC4)cc3)c2n1 [Example 33, 4-(1-(4-(5-(2-Fluoro-6-methoxyphenyl)-1H-pyrazolo[4,3-d]pyrimidin-3-yl)phenyl)cyclopropyl)morpholine] | 6.30 to 7.00 |
| COc1cccc(F)c1-c1ncc2[nH]nc(-c3ccc(CC#N)cc3)c2n1 [Example 34, 2-(4-(5-(2-Fluoro-6-methoxyphenyl)-1H-pyrazolo[4,3-d]pyrimidin-3-yl)phenyl)acetonitrile] | ≥ 7.00 |
| COc1ccc(-c2n[nH]c3cnc(-c4c(F)cccc4OC)nc23)cc1 [Example 35, 5-(2-Fluoro-6-methoxyphenyl)-3-(4-methoxyphenyl)-1H-pyrazolo[4,3-d]pyrimidine] | ≥ 7.00 |
| COc1cccc(F)c1-c1ncc2[nH]nc(-c3ccc(F)cc3)c2n1 [Example 36, 5-(2-Fluoro-6-methoxyphenyl)-3-(4-fluorophenyl)-1H-pyrazolo[4,3-d]pyrimidine] | ≥ 7.00 |
| CCN1CCN(c2ccc(-c3n[nH]c4cnc(-c5c(F)cccc5OC)nc34)cc2)CC1 [Example 37, 3-(4-(4-Ethylpiperazin-1-yl)phenyl)-5-(2-fluoro-6-methoxyphenyl)-1H-pyrazolo[4,3-d]pyrimidine] | ≥ 7.00 |
| COc1cccc(F)c1-c1ncc2[nH]nc(-c3ccc(N4CCCCC4)cc3)c2n1 [Example 40, 5-(2-Fluoro-6-methoxyphenyl)-3-(4-(piperidin-1-yl)phenyl)-1H-pyrazolo[4,3-d]pyrimidine] | ≥ 7.00 |
| CN1CCN(c2ccc(-c3n[nH]c4cnc(-c5cccc(F)c5F)nc34)cc2)CC1 [Example 44, 5-(2,3-Difluorophenyl)-3-(4-(4-methylpiperazin-1-yl)phenyl)-1H-pyrazolo[4,3-d]pyrimidine] | ≥ 7.00 |
| COc1ccc(F)c(F)c1-c1ncc2[nH]nc(-c3ccc(N4CCN(C)CC4)cc3)c2n1 [Example 45, 5-(2,3-Difluoro-6-methoxyphenyl)-3-(4-(4-methylpiperazin-1-yl)phenyl)-1H-pyrazolo[4,3-d]pyrimidine] | ≥ 7.00 |
| CNC(=O)c1cccc(-c2ncc3[nH]nc(-c4ccc(N5CCN(C)CC5)cc4)c3n2)c1F [Example 47, 2-Fluoro-N-methyl-3-(3-(4-(4-methylpiperazin-1-yl)phenyl)-1H-pyrazolo[4,3-d]pyrimidin-5-yl)benzamide] | 6.30 to 7.00 |
| COc1cccc(F)c1-c1ncc2[nH]nc(-c3cnn(-c4ccccc4)c3)c2n1 [Example 48, 5-(2-Fluoro-6-methoxyphenyl)-3-(1-phenyl-1H-pyrazol-4-yl)-1H-pyrazolo[4,3-d]pyrimidine] | ≥ 7.00 |
| COc1cccc(F)c1-c1ncc2[nH]nc(-c3ccn(C)c(=O)c3)c2n1 [Example 49, 4-(5-(2-Fluoro-6-methoxyphenyl)-1H-pyrazolo[4,3-d]pyrimidin-3-yl)-1-methylpyridin-2(1H)-one] | ≥ 7.00 |
| COc1cccc(F)c1-c1ncc2[nH]nc(-c3ccc(N4CCNCC4)nc3)c2n1 [Example 52, 5-(2-Fluoro-6-methoxyphenyl)-3-(6-(piperazin-1-yl)pyridin-3-yl)-1H-pyrazolo[4,3-d]pyrimidine] | ≥ 7.00 |
| COc1cccc(F)c1-c1ncc2[nH]nc(-c3ccc(N4CCOCC4)nc3)c2n1 [Example 53, 4-(5-(5-(2-Fluoro-6-methoxyphenyl)-1H-pyrazolo[4,3-d]pyrimidin-3-yl)pyridin-2-yl)morpholine] | ≥ 7.00 |
